# Assay results published in patent US8652785B2, “Method of screening a modulator of endothelial NO synthase comprising the use of heme binding protein 1” (Sanofi, priority 2008, dated 2014).
# Where two headings read alike, the source gives them in different places.
# Legend:
# eNOS promoter = test: eNOS-transcription test (eNOS-promoter luciferase reporter cell line EA.csr03); assay type: cell-based; settings: Homo sapiens; EA.csr03 cells; read-out: Cellular EC50 in the eNOS-transcription test
# Protocol: The EA.csr03 cells are cells of a stable eNOS-promoter luciferase cell line. It was obtained by transfection of EA.hy926 cells with a firefly luciferase reporter construct, with a 3.5 kb fragment of the eNOS-promoter added. Cultivation of these cells was carried out with IMDM with GlutaMAX™ I supplemented with 100 U/ml penicillin, 100 μg/ml streptomycin, 10% FCS and 0.4 mg/ml geneticin as selection antibiotic. The EA.hy926 cells are a stable human cell line, which was obtained by fusion of HUVEC with the human […] cell line A549. This cell line is characterized by expression of specific endothelial cell markers, e.g. the “van-Willebrand factor”. The cells used are an original culture of Cora Jean Edgell of passage 32. The cells were cultivated in IMDM with GlutaMAX™ I supplemented with 100 U/ml penicillin, 100 μg/ml streptomycin, HAT Hybri-Max™ medium additive (hypoxanthine, aminopterin and thymidine) and Biotect protective medium.
# For transcription test for eNOS promoter activation, 20 000 cells per well of the reporter cell line EA.csr03 were sown in a white 96-well cell culture plate. After 24 hours, various dilutions of the substance in cell culture medium were prepared starting from DMSO stock solutions and were preincubated for 10 min at 37° C. on a water bath. Then these incubation media (100 μl/well) were added to the cells. After incubation for 18 hours, the cells were washed twice with DPBS (100 μl/well) and luciferase lysis buffer (50 μl/well) was added. After 10 min, the solubilized luciferase-substrate luciferin (100 μl/well) was added to the cell lysates. During the luciferase-catalyzed oxidation of luciferin to oxyluciferin there is release of chemiluminescence. […] The light units released were measured in the Genios microplate reader from Tecan Deutschland (Crailsheim, Germany).
# [1] = biological target: T1, TBP-related Protein 1 (TBPL1) (Homo sapiens, UniProt P62380); test: Protein microarray (ProtoArray) binding, TBPL1
# T1 construct: purchased Invitrogen, Karlsruhe, Germany ProtoArrays v3.0
# T1 sequence (P62380 1-186): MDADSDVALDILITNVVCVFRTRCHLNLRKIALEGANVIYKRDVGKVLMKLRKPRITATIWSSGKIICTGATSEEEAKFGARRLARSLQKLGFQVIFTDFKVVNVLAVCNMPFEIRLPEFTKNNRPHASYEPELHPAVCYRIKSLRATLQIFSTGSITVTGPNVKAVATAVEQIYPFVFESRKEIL
# Protocol: (§1) The protein-microarray experiments were carried out using ProtoArrays® v3.0 (Invitrogen, Karlsruhe, Germany). These were nitrocellulose-coated glass plates, on which approx. 5000 recombinant human proteins, in duplicates, were immobilized.
# (§2) In the first step the microarrays were incubated for one hour at 4° C. with a MOPS blocking buffer with 0.1% (v/v) Igepal and 1% (w/v) BSA. Then the arrays with the biotin-labeled eNOS transcription enhancers A012 and A013, sometimes in the presence of the unlabeled substance 9257, were incubated at 4° C. for 90 min without shaking, in various test conditions in a MOPS sample buffer with 1% (v/v) Igepal and 1% (w/v) BSA.
# (§3) After washing three times, in each case for 1 min, with pure MOPS sample buffer on ice, they were incubated for 30 min with IRDye®680-labeled streptavidin diluted 1/1000 in MOPS sample buffer away from the light, also on ice. IRDye®680- and IRDye®800-labeled secondary antibodies, which recognize the constant Fc-part of the primary antibodies, were used exclusively for the immunodetection of certain proteins. […] The advantage of this wavelength range is the very good signal-to-noise ratio on account of low intrinsic fluorescence. Detection employs the ODYSSEY™ from LI-COR Biosciences (Bad Homburg, Germany). […]
# (§4) These labeling (A) and competition tests (B) were evaluated by quantifying the fluorescence signals.
# [2] = biological target: T2, Cytidinemonophosphate-N-acetylneuraminic acid-synthetase (CMAS) (Homo sapiens, UniProt Q8NFW8); test: Protein microarray (ProtoArray) binding, CMAS
# T2 construct: purchased Invitrogen, Karlsruhe, Germany ProtoArrays v3.0
# T2 sequence (Q8NFW8 whole entry): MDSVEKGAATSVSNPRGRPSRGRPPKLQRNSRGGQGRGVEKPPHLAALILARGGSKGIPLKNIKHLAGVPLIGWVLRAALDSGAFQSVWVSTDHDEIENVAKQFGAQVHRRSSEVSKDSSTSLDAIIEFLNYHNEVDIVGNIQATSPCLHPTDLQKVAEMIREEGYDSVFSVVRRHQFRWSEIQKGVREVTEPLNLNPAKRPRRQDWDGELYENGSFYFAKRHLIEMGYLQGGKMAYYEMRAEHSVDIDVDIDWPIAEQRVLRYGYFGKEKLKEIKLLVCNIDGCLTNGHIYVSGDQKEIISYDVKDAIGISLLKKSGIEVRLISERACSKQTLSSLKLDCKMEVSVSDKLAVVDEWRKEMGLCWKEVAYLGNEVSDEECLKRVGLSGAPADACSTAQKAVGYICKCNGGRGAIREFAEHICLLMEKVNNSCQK
# Protocol: as §1, §2, §3, §4
# [3] = biological target: T3, Transcription factor EB (TFEB) (Homo sapiens, UniProt P19484); test: Protein microarray (ProtoArray) binding, TFEB
# T3 construct: purchased Invitrogen, Karlsruhe, Germany ProtoArrays v3.0
# T3 sequence (P19484 1-476): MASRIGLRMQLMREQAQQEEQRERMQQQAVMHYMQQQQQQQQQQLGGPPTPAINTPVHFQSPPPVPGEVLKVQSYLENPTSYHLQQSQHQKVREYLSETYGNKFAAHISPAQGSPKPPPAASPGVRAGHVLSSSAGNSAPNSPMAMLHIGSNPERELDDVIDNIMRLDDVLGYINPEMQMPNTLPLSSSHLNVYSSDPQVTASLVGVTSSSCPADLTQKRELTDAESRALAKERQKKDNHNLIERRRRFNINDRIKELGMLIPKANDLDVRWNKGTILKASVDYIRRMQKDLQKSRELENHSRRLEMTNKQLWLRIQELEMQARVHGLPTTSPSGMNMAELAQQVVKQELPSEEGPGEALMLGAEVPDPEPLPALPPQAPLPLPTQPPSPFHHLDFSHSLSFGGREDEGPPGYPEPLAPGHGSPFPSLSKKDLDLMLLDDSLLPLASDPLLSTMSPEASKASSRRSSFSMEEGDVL
# Protocol: as §1, §2, §3, §4
# [4] = biological target: T4, Mitogen-activated protein kinase 7 (MAPK7) (Homo sapiens, UniProt Q13164); test: Protein microarray (ProtoArray) binding, MAPK7
# T4 construct: purchased Invitrogen, Karlsruhe, Germany ProtoArrays v3.0
# T4 sequence (Q13164 whole entry): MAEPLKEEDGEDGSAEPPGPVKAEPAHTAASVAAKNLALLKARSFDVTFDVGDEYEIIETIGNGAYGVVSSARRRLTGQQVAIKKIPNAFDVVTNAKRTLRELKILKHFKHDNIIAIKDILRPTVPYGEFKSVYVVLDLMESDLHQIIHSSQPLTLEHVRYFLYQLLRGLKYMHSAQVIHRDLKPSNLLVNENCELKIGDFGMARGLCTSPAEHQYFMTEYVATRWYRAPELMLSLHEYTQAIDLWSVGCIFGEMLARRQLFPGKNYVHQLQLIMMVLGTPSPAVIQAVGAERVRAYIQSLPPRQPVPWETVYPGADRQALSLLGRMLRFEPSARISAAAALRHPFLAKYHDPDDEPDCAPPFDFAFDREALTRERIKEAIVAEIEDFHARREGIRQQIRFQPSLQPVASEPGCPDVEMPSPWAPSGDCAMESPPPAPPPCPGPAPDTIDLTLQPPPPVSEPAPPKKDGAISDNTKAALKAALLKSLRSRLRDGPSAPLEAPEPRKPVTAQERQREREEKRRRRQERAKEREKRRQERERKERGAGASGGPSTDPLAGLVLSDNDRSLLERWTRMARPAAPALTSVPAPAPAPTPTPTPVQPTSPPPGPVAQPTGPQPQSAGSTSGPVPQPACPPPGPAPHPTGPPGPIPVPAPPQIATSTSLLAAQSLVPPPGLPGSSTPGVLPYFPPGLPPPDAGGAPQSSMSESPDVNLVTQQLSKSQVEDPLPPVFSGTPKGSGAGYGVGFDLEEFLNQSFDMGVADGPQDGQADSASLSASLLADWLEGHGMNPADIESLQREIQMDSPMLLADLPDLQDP
# Protocol: as §1, §2, §3, §4
# [5] = biological target: T5, AMP-activated protein kinase, catalytic subunit alpha 1 (PRKAA1) (Homo sapiens, UniProt Q13131); test: Protein microarray (ProtoArray) binding, PRKAA1
# T5 construct: purchased Invitrogen, Karlsruhe, Germany ProtoArrays v3.0
# T5 sequence (Q13131 whole entry): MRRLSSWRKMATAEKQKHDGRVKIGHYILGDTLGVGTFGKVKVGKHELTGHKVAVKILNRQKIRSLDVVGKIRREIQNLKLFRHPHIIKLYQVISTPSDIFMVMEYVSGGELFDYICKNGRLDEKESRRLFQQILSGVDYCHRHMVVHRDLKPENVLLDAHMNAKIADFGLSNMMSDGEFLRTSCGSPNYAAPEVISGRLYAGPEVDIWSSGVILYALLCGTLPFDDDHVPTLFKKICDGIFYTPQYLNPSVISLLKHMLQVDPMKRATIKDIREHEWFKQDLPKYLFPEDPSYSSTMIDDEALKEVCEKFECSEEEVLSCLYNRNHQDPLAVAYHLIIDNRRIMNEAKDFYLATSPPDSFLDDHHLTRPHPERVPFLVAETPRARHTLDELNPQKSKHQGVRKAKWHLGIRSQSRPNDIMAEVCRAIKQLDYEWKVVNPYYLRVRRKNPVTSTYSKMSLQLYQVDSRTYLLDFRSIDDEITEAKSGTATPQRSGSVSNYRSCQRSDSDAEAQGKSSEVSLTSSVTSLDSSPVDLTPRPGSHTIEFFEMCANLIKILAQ
# Protocol: as §1, §2, §3, §4
# [6] = biological target: T6, Phosphoserine aminotransferase 1 (PSAT1) (Homo sapiens, UniProt Q9Y617); test: Protein microarray (ProtoArray) binding, PSAT1
# T6 construct: purchased Invitrogen, Karlsruhe, Germany ProtoArrays v3.0
# T6 sequence (Q9Y617 1-370): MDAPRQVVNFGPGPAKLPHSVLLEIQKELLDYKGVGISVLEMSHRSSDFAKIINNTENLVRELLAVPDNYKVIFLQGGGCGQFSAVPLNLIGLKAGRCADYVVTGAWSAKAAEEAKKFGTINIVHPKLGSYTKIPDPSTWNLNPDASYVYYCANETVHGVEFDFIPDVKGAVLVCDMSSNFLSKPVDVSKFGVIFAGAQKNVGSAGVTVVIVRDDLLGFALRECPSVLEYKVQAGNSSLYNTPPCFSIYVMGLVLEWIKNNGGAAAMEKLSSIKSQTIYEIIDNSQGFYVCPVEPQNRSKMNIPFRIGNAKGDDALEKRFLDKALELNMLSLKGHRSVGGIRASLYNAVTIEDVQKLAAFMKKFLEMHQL
# Protocol: as §1, §2, §3, §4
# [7] = system: recombinant human proteins on ProtoArrays v3.0; test: Protein microarray (ProtoArray) labeling and competition, qualitative; assay type: binding; settings: substance 100 μM
# Protocol: as §1, §2
# as §3, with “Germany). With this instrument it is possible to detect both emission wavelengths on one membrane simultaneously.” for “Germany).”
# human Hexahis-HEBP1 = biological target: T7, human Hexahis-HEBP1 (Homo sapiens, UniProt Q9NRV9); test: Binding studies by quenching of tryptophan fluorescence
# T7 construct: Hexahis (6xHis) (N); made in house; host or cells: E. coli BL21 Star (DE3)
# T7 sequence (Q9NRV9 1-189): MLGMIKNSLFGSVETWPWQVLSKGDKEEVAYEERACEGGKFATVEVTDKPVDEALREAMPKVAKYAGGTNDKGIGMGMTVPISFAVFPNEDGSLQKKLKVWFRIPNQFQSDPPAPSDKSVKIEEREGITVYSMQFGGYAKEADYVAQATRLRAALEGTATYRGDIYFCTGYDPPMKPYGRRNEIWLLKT
# Source text: For carrying out binding studies with human HEBP1, it is possible to utilize the intrinsic fluorescence of the tryptophan residues at λ=340 nm, using an excitation wavelength of λ=295 nm. The resultant fluorescence can be “quenched” by binding of porphyrins in spatial proximity to the tryptophan residues. This leads to a decrease of intrinsic fluorescence, which therefore provides a measure for the binding of a ligand. In order to optimize the experimental conditions for these quench measurements it was first necessary to evaluate the spectroscopic properties of the recombinant Hexahis-HEBP1.
# Next, studies of the binding of hemin and protoporphyrin IX (PPIX) to human Hexahis-HEBP1 in the presence of eNOS transcription enhancers by tryptophan quenching were carried out. Binding studies with human HEBP1 are carried out using the intrinsic fluorescence of tryptophan residues that are contained. The fluorescence occurring at λ=340 nm after excitation with a wavelength of λ=295 nm can be “quenched” through the binding of porphyrins in proximity to the tryptophan residues. The measured fluorescence decreases as a function of the concentration of the ligands. Using nonlinear regression, it is possible to calculate the binding parameters.
# Hemin and PPIX at concentrations from 30 nM to 10 μM were added to a buffered HEBP1 solution (500 nM) and after incubation for 10 min the tryptophan fluorescence was measured (FIG. 3). It was not possible to use higher porphyrin concentrations owing to the low solubility in aqueous systems.
# The influence of the eNOS-transcription enhancers on tryptophan quenching by hemin was investigated next. In the experiments the recombinant human HEBP1 at a concentration of 500 nM was preincubated on ice for 30 min with the eNOS-substance 9257 versus DMSO-control in a binding buffer (pH 7.4) of HEPES (20 mM), sodium chloride (100 mM) and DTT (1 mM). Black, 96-well plates were used as the reaction vessel. Then hemin or protoporphyrin IX was added at varying concentrations through addition of the 200-fold concentrated DMSO stock solution and incubated for 10 min at room temperature. Finally, the tryptophan fluorescence was measured after previous optimization at λexc=295 nm and λem=340 nm in the Safire^2 microplate reader (Tecan Deutschland, Crailsheim, Germany).
# First we investigated whether substance 9257 can quench the tryptophan fluorescence of HEBP1. […] Therefore the binding of 9257 was investigated indirectly through competition with hemin. For this, HEBP1 (500 nM) was preincubated with 9257 (10 μM) on ice, versus DMSO-control. After 30 min the hemin was added at varying concentrations of 0.1-10 μM and it was incubated at room temperature for a further 10 min before measuring the tryptophan fluorescence (FIG. 4).
# [8] = B: A012 (100 μM) in the presence of unlabeled substance 9257 (25 μM)
# [9] = 0.5 μM HEBP1, ligand 30 nM to 10 μM, 10 min, read-out: IC50 of tryptophan fluorescence quenching
molecule,measurement,setting,value
O=C(CCCC[C@@H]1SC[C@@H]2NC(=O)N[C@@H]21)NCCCCCC(=O)NCCOCCOc1ccc(C(=O)N[C@H]2CCCc3ccccc3C2)cc1 [A012],EC50,eNOS promoter,1.2 µM
same,Fluorescence intensity A,[1]; A: A012 (100 μM),10788
same,Fluorescence intensity B,[1]; [8],4083
same,Fluorescence intensity A,[2]; A: A012 (100 μM),10411
same,Fluorescence intensity B,[2]; [8],5028
same,Fluorescence intensity A,[3]; A: A012 (100 μM),4987
same,Fluorescence intensity B,[3]; [8],1333
same,Fluorescence intensity A,[4]; A: A012 (100 μM),4775
same,Fluorescence intensity B,[4]; [8],1135
same,Fluorescence intensity A,[5]; A: A012 (100 μM),3791
same,Fluorescence intensity B,[5]; [8],1206
same,Fluorescence intensity A,[6]; A: A012 (100 μM),3151
same,Fluorescence intensity B,[6]; [8],2269
same,labeling of protein duplicates on the microarray,[7],readily discernible
O=C(CCCC[C@@H]1SC[C@@H]2NC(=O)N[C@@H]21)NCCCCCC(=O)NCCOCCOc1ccc(C(=O)N[C@@H]2CCCc3ccccc3C2)cc1 [A013],EC50,eNOS promoter,> 10 µM
same,labeling of protein duplicates on the microarray,[7],no binding of the substance to the proteins
O=C(NC1Cc2ccccc2C1)c1ccc(F)cc1 [AVE9488],EC50,eNOS promoter,3 µM
"C=CC1=C(C)c2cc3[nH]c(cc4nc(cc5[nH]c(cc1n2)c(C)c5CCC(=O)O)C(CCC(=O)O)=C4C)c(C)c3C=C [PPIX, protoporphyrin IX]",IC50,human Hexahis-HEBP1; [9],13 µM
hemin,IC50,human Hexahis-HEBP1; [9],3 µM
same,IC50,"human Hexahis-HEBP1; HEBP1 500 nM, DMSO-control, hemin 0.1-10 μM, read-out: IC50 of the hemin binding curve, DMSO-control",1.1 µM
same,potency of hemin relative to PPIX,human Hexahis-HEBP1; from IC50 values,10 times
